Structures are written as SMILES.

One data set relates to AKSP CRC tumoroid line. Briefly: 3D CRC tumoroid viability, AKSP model. Type of data set: cell-based, mice. The conditions noted are these: at 5.0 μM, viability after 72 hours. How it is done: To model different stages of colorectal cancer (CRC), intestinal organoids were derived from genetically engineered mice with the following genotypes Apc^flx/flx (A) and Apc^flx/flx Kra^LSL-G12D Smad4^flx/flx (AKS) and transformed ex vivo by addition of 100 nM 4-OHT for 24 hours. Once the organoids acquired a spheroid morphology characteristic of CRC Tumoroids, trp53 was knocked out in AKS tumoroids using CRISPR-CAS9 technology to generate the AKSP line. CRC tumoroid lines as well as wild type intestinal organoids were seeded onto Matrigel in 96 well plates in triplicates 16 hours before being treated with the indicated compounds at a final concentration of 0.5 μM. 72 hours later, cell viability was assessed using Titerglo® assay. Results of 3D CRC organoid line data for pyrazolo- and pyrrolopyrimidine compounds at 0.5 μm were obtained (FIGS. 25A-G). […] In the AKSP model, at 5.0 μM, the top ten compounds were: APS-8-35-3, APS-8-35-4, APS-6-87, APS-9-3, AD80, APS-8-85-2, APS-8-51-3, APS-9-2, and APS-8-56-4.

In the next data set the test system is RET (WT and M918T). Briefly: NanoBRET cell based target engagement assay. The settings on record: RET-Nluc in HEK 293T cells.
For data set [1], the target named is T1, wild-type RET kinase domain (Homo sapiens, UniProt P07949).
T1 construct: determined against recombinant-human, wild-type RET kinase domain; phage display fusion (kinase expressed on phage); purchased DiscoverX (Fremont, CA); host or cells: phage
T1 sequence (P07949 724-1016 limits assumed): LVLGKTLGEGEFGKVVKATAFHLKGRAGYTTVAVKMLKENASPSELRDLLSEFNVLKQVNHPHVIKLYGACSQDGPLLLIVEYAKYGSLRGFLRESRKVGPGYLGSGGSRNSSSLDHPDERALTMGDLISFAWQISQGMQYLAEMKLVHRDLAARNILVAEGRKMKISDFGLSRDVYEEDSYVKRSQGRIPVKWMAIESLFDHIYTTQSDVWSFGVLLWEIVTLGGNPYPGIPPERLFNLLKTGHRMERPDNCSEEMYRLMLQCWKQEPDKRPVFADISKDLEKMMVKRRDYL
Put plainly: Wild-type RET Kd, bead based competition assay (KINOMEscan, DiscoverX). The format is binding. The settings on record: recombinant human wild-type RET kinase domain, average of two replicates; read-out: Kd towards wild-type RET. On the procedure: Wild-type RET Kd values were determined by DiscoverX (Fremont, CA) using a bead based competition assay (KINOMEscan). In brief, kinases are expressed on phage and immobilized on beads via active site-directed ligands. Test compounds are premixed with kinases and assayed for the ability to compete for immobilized ligands. Binding constants are calculated with a standard dose-response curve and the Hill equation, with Hill slope set to −1. […] Kd values are the average of two experimental replicates.
To assess if the differences in activity between R^F- and R^H-analogs were related to alterations in target engagement, representative analogs for binding on wild-type RET were compared. For this KD values of compounds 40 (para-C2F5) and 50 (para-C2H5) were determined against recombinant-human, wild-type RET kinase domain.

The test system of a further data set is ptc>dRet^M955T flies. Put plainly: Fly rescue assay (Drosophila MTC model ptc>dRet^M955T). The format is in vivo. The settings on record: compound in fly food; for rescue (percent viability of adult flies, adults/pupae×100): 13 d at 25° C., baseline viability 0%. On the procedure: Kinase-mutated fly stocks were obtained from Bloomington Drosophila Stock Center (BDSC; Bloomington, IN). The active mutant form of Drosophila Ret (dRet^955T) carries an M955T mutation corresponding to the M918T mutation commonly reported for multiple endocrine neoplasia (MEN) type 2B patients12,14,16,34. The ptc-gal4, UAS-GFP;UAS-dRet^M955T/SM5tub-gal80-TM6B transgenic flies were prepared according to standard protocols and crossed with non-transgenic w-flies (BDSC) to generate ptc-gal4, UAS-GFP; UAS-dRet^M955T(ptc>dRet^M955T) flies for chemical screening.
All drugs were synthesized in-house. All compounds were dissolved in DMSO (Sigma-Aldrich; St. Louis, MO) and mixed with semi-defined fly medium (BDSC) to make drug food (0.1% final DMSO concentration). For drug screening, ptc>dRet^M955T embryos were raised until adulthood on drug food for 13 d at 25° C. The number of empty pupal cases (i.e., adults) ? that of total pupal cases (P) to determine % viability. Fly randomization was used throughout the assays.
In this model, compounds are assessed based on their ability to suppress oncogenic Ret^M955T-induced tumors, which can be quantified as ‘rescue’ from lethality. […] The baseline viability of ptc>Ret^1955T flies was calibrated to zero, which creates a high bar for rescue but also reduces false-positive hits. Hundreds of flies are tested per condition (typical n values are […] administered through fly food.

For data set [2], the system named is panel of 468 purified human kinases. Put plainly: In vitro kinase percent inhibition, panel of 468 kinases (DiscoverX). The conditions noted are these: 1 μM; for binding to wild-type RET and RET^M918T, in words: kinase panel. Type of data set: binding. On the procedure: Compounds were assayed against a panel of 468 purified human kinases (DiscoverX) to measure percentage inhibition values and derive kinome profiles (FIGS. 3B-3C). All compounds were screened at 1 μM, using two experimental replicates to determine percent inhibition values. Detailed procedures for kinase reactions and assay formats are described at http://www.discoverx.com. Raw data sets for individual compounds were filtered based on the variance of experimental replicates (cutoff=average variance+standard deviation).

The conditions of data set [3]: cited from earlier work.
The test system of another data set is P-gp. Briefly: MDCK permeability assay. The format is in vitro ADME. The settings on record: dog, 1 hour at 37° C., HBSS pH 7.4 both sides, read-out: influx/efflux ratio in MDCK. On the procedure: (§1) FIGS. 9A-9C show the physicochemical comparison of R^F and R^H Analogs. FIG. 9A is a graph of the MDCK and Caco-2 permeability assays for the indicated compounds. Compounds were assayed at 5 μM and transport (Papp, B-A and Papp, A-B, ×10^−6 cm/s) values were measured to determine influx over efflux ratios. […] There are differences in magnitude for bond and molecular dipoles, and R^F- and R^H-substituents have opposite charge profiles.
(§2) Caco-2 and MDCK permeability assays to assess transport in both directions, apical to basolateral (A-B) and basolateral to apical (B-A), across a cell monolayer were conducted at Quintara Discovery. The compounds were tested at a final concentration of 5 microM, with HBSS, pH 7.4 on apical side and HBSS, pH 7.4 on basolateral side. Transport was allowed to proceed for 1 hour at 37° C., with compound detection performed by LC-MS/MS. Assays were conducted twice. Papp, B-A and Papp, A-B, ×10^−6 cm/s values were determined at Quintara.

Data set [4] is described as follows: Caco-2 permeability assay. The format is in vitro ADME. The settings on record: human, 1 hour at 37° C., HBSS pH 7.4 both sides, read-out: influx/efflux ratio in Caco-2. How it is done: as §1, §2
Data set [5] deals with HCC tumor organoids, BC (B-Catenin). Put plainly: 3D HCC tumor organoid viability, BC model. Type of data set: cell-based. The conditions noted are these: 5.0 μM, viability three days post drug administration. How it is done: (§3) For assays in HCC tumor organoids, 96 well plates were first coated with a 50:50 solution of basal media:Matrigel ([…]), which polymerized for 15 minutes at 37° C. Tumor organoids were taken out of Matrigel, broken, and washed. Tumor organoids were seeded at 1,000 cells per well and were treated the following day with single doses of drugs in technical triplicate. Final DMSO concentrations were kept below 0.5%. Cell viability was measured three days post drug administration with either luminescence from CellTiter-Glo or absorbance at 560 and 590 nm from resazurin. Viability data was analyzed by normalizing individual drug-treated well values to DMSO-treated wells (BC=B-Catenin; SR=sorafenib resistant). Results of 3D HCC cell line data for pyrazolo- and pyrrolopyrimidine compounds at 0.5 μm (FIGS. 22A-F), 0.05 μm (FIGS. 23A-F), and 5.0 μm (FIGS. 24A-F) were obtained. […] In the BC model, at 5.0 μM, the top ten compounds were: APS-8-100-4, APS-8-52-3, APS-8-51-4, APS-7-25-2, APS-8-100-3, APS-8-51-3, APS-8-50-4, APS-8-52-4, and APS-7-38. In the SR model, at 5.0 μM, the top ten compounds were: APS-8-51-3, APS-8-50-4, APS-8-51-4, APS-8-52-3, APS-8-50-3, APS-7-52-2, APS-8-52-4, APS-7-52-1, and APS-8-100-4.

The test system of data set [6] is HCC tumor organoids, SR (sorafenib resistant). Briefly: 3D HCC tumor organoid viability, SR model. The settings on record: 5.0 μM, viability three days post drug administration. Type of data set: cell-based. How it is done:
as §3

The subject of the next data set is human MTC cell line TT. The conditions noted are these: previous work; cited from earlier work.

Procedure for RET (WT and M918T): Assays were completed in duplicate. […] FIG. 8D is a graph of the cell-based target engagement for the indicated compounds against wild-type and M918T RET. IC50 values were determined based on 8-point titration curves of free ligand. Competition assays were completed in technical triplicate against full-length human RET-Nluc expressed in 293T cells, complexed with an active-site fluorescent tracer.
In this assay, a bioluminescence resonance energy transfer (BRET) signal is generated between nanoLuciferase tagged RET (expressed in HEK 293T cells) and an active-site based fluorescent tracer. […] Using this assay, in vivo binding was determined for a series of compounds against mutant (M918T) and wild-type RET (FIG. 8D).

For `CC(C)n1nc(-c2ccc(NC(=O)Nc3cc(C(F)(C(F)(F)F)C(F)(F)C(F)(F)F)ccc3F)cc2)c2c(N)ncnc21` (stereo not shown) [APS-8-35-3, 1-(4-(4-Amino-1-isopropyl-1H-pyrazolo[3,4-d]pyrimidin-3-yl)phenyl)-3-(2-fluoro-5-(perfluorobutan-2-yl)phenyl)urea], in the data set on AKSP CRC tumoroid line, the “ranking by inhibition of cell proliferation, AKSP model” value (shortened to “ranking by inhibition … AKSP model”) is given as “top ten”. The “cellular IC50 against RET, ranking in words” value in the data set with RET (WT and M918T) (pyrazolo- and pyrrolopyrimidine series) was “highest IC50 values”.

As usually defined, the Kd is a measure of binding affinity in units of concentration. With `CNC(=O)c1cc(Oc2ccc(NC(=O)Nc3ccc(C(F)(F)F)cc3)c(F)c2)ccn1` [APS-4-9-8], the Kd in data set [1] is 2.8 nM. In the data set on ptc>dRet^M955T flies, the “rescue activity in the fly model, in words” value is listed as “no fly rescue” and the “rescue (percent viability of adult flies, adults/pupae×100)” value amounted to 0%. Besides, the “binding to wild-type RET and RET^M918T, in words” value in data set [2] is “strong binding to wild-type and mutant RET^M918T”. For the same molecule, the “binding profile / selectivity across the kinome, in words” value in data set [2] (panel of 468 kinases) was “strong binding to a large group of kinases”. For the same molecule, in [2] (panel of 468 kinases, listed as 4-9-8), the “binding profile / selectivity across the kinome, in words” value is reported as “low overall selectivity”.

On to `CC(C)n1nc(-c2ccc(NC(=O)Nc3cc(C(F)(F)F)ccc3F)cc2)c2c(N)ncnc21` [AD80, 1-(4-(4-amino-1-isopropyl-1H-pyrazolo[3,4-d]pyrimidin-3-yl)phenyl)-3-(2-fluoro-5-(trifluoromethyl)phenyl)urea, reference compound], for which the “rescue (percent viability of adult flies, adults/pupae×100)” value in the data set with ptc>dRet^M955T flies amounted to 80%. Moreover, the “ranking by inhibition … AKSP model” value in the data set with AKSP CRC tumoroid line is given as “top ten”. Besides, the “cellular IC50 wild-type RET versus M918T mutant, in words” value in the data set with RET (WT and M918T) is given as “slightly lower IC50 value for wild-type RET over mutant”.

On to `CNC(=O)c1cc(Oc2ccc(NC(=O)Nc3ccc(Cl)c(C(F)(F)F)c3)cc2)ccn1` [Sorafenib, sorafenib], for which the “protein-bound in blood plasma” value in data set [3] is reported as more than 99%. Moreover, the figures for the efflux ratio at 1 h, 5 µM (in the data set with P-gp; in data set [4]) were less than 2 and more than 2, respectively.

With `CNC(=O)c1cc(Oc2ccc(NC(=O)Nc3ccc(C(F)(C(F)(F)F)C(F)(F)C(F)(F)F)cc3)c(F)c2)ccn1` (stereo not shown) [APS-8-82-1], the Kd in data set [1] turned out to be 110 nM. The “rescue (percent viability of adult flies, adults/pupae×100)” value with ptc>dRet^M955T flies stood at 85%. Moreover, the “binding to wild-type RET and RET^M918T, in words” value in data set [2] is reported as “selective for mutant RET^M918T”; in data set [2] (listed as 8-82-1) it was “selectivity for the M918T mutant over wild-type”. Further, the “binding profile / selectivity across the kinome, in words” value in data set [2] (panel of 468 kinases) is listed as “highly selective across the kinome”. Further, the “number of kinases bound with >80% efficacy” value in data set [2] (panel of 468 kinases) is recorded as 7.

In the case of `CC(C)n1nc(-c2ccc(NC(=O)Nc3ccc(C(F)(F)C(F)(F)C(F)(F)F)cc3)cc2)c2c(N)ncnc21` [APS-8-51-3, 1-(4-(4-Amino-1-isopropyl-1H-pyrazolo[3,4-d]pyrimidin-3-yl)phenyl)-3-(4-(perfluoropropyl)phenyl)urea], the “ranking by inhibition … AKSP model” value in the data set on AKSP CRC tumoroid line is “top ten”. Also, the “ranking by inhibition of cell proliferation, BC model” value in data set [5] is “top ten”. Further, the “ranking by inhibition of cell proliferation, SR model” value in data set [6] is recorded as “top ten”.

For the molecule `CNC(=O)c1cc(Oc2ccc(NC(=O)Nc3ccc(C(F)(F)C(F)(F)C(F)(F)C(F)(F)F)cc3)c(F)c2)ccn1` [APS-8-52-2], the Kd in [1] was 100 nM.

As for `CNC(=O)c1cc(Oc2ccc(NC(=O)Nc3cc(C(F)(C(F)(F)F)C(F)(F)F)ccc3F)cc2)ccn1` [APS-6-45], the “rescue (percent viability of adult flies, adults/pupae×100)” value in the data set on ptc>dRet^M955T flies is recorded as 84%. Further, the “performance in mouse xenograft, in words” value in the data set with human MTC cell line TT is “performed well”. For the same molecule, the efflux ratio at 1 h, 5 µM is less than 2 in the data set with P-gp and more than 2 in data set [4].

(Values after patent US20240287081A1, “PERFLUOROALKANE SUBSTITUTED PYRAZOLO[3,4-D]PYRIMIDIN AND PYRROLO[2,3-D]PYRIMIDIN COMPOUNDS AND USES THEREOF” (ICAHN SCHOOL OF MEDICINE AT MOUNT SINAI, priority 2021, published 2024).)
